Molecular target: T1, human acetyl-CoA carboxylase 2 (ACC2) (Homo sapiens, UniProt O00763)
T1 construct: The cDNA encoding amino acids 144 to 2458 of human acetyl-CoA carboxylase 2; made in house; host or cells: Sf9 insect cells (baculovirus, pFastBac1)
Assay: Acetyl-CoA carboxylase enzyme assay (malonyl-CoA formation by LC/MS/MS)
Format: biochemical
Conditions: IC50 ACC2, recombinant human ACC2 (aa 144-2458)
Outline: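 Malonyl-CoA formation was read by LC/MS/MS MRM against a [13C3]-malonyl-CoA internal standard, after acetic acid quench. The enzyme was baculovirus/Sf9-expressed human ACC2 residues 144–2458, given 15 minutes room-temperature compound preincubation in HEPES pH 7.5 buffer with MgCl2, citrate and DTT. Substrate solution held 50 μM acetyl-CoA, 120 μM ATP and 2 mM KHCO3.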

T1 sequence (O00763 144-2458): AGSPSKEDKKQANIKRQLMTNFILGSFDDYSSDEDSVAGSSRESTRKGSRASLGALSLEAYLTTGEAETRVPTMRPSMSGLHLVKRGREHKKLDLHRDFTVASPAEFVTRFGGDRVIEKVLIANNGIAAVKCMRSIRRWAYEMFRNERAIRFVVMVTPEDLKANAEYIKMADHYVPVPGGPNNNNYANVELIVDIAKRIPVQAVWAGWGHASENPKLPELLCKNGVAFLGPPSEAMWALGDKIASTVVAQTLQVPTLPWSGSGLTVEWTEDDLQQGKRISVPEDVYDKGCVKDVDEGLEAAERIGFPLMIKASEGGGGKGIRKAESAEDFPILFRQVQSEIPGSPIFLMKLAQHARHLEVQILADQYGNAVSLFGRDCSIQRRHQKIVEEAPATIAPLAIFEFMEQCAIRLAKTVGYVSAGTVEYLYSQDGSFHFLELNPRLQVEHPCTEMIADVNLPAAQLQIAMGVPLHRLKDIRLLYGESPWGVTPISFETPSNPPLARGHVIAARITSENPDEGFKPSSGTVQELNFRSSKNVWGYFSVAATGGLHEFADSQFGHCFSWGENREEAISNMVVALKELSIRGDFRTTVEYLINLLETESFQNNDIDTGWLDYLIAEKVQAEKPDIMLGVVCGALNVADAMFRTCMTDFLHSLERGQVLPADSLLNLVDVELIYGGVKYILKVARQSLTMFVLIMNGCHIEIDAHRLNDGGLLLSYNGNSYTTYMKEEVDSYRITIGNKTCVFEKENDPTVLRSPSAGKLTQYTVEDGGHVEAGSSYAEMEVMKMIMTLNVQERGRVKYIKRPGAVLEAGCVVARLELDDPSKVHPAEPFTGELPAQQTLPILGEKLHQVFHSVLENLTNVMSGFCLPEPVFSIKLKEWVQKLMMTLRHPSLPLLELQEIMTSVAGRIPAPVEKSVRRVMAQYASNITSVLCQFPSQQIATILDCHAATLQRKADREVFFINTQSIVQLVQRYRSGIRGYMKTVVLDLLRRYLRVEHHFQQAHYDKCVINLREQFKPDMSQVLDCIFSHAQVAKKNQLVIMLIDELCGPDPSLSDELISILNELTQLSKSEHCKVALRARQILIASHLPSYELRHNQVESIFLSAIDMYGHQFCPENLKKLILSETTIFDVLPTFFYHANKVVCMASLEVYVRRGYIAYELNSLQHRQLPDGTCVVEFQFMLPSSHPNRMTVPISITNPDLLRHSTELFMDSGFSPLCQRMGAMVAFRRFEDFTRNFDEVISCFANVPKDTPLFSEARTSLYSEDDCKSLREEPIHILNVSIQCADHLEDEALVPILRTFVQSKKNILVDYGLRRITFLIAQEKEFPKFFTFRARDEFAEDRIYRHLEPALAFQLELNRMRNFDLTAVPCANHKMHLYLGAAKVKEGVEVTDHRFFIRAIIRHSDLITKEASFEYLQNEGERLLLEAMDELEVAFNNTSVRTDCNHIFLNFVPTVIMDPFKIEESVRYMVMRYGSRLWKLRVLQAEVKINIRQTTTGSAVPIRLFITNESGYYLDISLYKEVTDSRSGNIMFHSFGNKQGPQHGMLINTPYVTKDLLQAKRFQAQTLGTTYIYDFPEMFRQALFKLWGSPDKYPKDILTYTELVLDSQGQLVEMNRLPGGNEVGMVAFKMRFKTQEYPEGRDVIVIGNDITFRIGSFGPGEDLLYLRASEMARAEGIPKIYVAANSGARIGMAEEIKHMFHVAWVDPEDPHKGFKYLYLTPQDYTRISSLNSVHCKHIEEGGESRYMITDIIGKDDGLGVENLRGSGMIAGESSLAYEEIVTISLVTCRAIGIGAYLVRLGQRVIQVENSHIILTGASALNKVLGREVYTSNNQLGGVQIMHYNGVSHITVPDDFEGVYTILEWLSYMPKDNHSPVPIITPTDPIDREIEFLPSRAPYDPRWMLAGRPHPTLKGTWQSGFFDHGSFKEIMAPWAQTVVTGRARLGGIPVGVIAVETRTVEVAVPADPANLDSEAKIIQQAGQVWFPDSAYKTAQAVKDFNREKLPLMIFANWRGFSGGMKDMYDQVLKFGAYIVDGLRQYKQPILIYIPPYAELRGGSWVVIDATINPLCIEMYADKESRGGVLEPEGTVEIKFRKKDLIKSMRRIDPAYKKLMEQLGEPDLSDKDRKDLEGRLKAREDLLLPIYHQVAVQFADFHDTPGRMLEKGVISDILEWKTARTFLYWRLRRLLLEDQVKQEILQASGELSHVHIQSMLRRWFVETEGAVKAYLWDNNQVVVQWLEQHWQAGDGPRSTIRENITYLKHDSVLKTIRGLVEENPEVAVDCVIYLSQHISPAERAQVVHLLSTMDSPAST

SMILES	IC50 [nM]
O=C([C@H]1CC[C@H](NS(=O)(=O)c2ccc3[nH]c(-c4ccccc4)nc3c2)CC1)N1CCC2(CC1)OCCCO2 [Example 622, N-((1r,4r)-4-(1,5-dioxa-9-azaspiro[5.5]undecane-9-carbonyl)cyclohexyl)-2-phenyl-1H-benzo[d]imidazole-5-sulfonamide]	411

Same assay, conditions: recombinant human ACC2 (aa 144-2458); read-out: IC50 ACC2

SMILES	IC50 [nM]
CC(C)c1nnc(-c2ccc(NS(=O)(=O)c3ccc4[nH]c(Nc5ccc(N6CCN(C)CC6)cc5)nc4c3)cc2)o1 [Example 605, N-(4-(5-isopropyl-1,3,4-oxadiazol-2-yl)phenyl)-2-(4-(4-methylpiperazin-1-yl)phenylamino)-1H-benzo[d]imidazole-5-sulfonamide]	138
C[C@@H](NC(=O)[C@H]1CC[C@H](NS(=O)(=O)c2ccc3[nH]c(Nc4ccc(N5CCN(C)CC5)cc4)nc3c2)CC1)c1ccccc1 [Example 606, (1r,4R)-4-(2-(4-(4-methylpiperazin-1-yl)phenylamino)-1H-benzo[d]imidazole-5-sulfonamido)-N-((R)-1-phenylethyl)cyclohexanecarboxamide]	< 10
CC(C)(C)c1nnc([C@H]2CC[C@H](NS(=O)(=O)c3ccc4[nH]c(-c5ccc(F)cc5)nc4c3)CC2)o1 [Example 607, N-((1r,4r)-4-(5-tert-butyl-1,3,4-oxadiazol-2-yl)cyclohexyl)-2-(4-fluorophenyl)-1H-benzo[d]imidazole-5-sulfonamide]	1090
COC(=O)c1cccc(-c2nc3cc(S(=O)(=O)N[C@H]4CC[C@H](c5nnc(C(C)(C)C)o5)CC4)ccc3[nH]2)c1 [Example 608, methyl 3-(5-(N-((1r,4r)-4-(5-tert-butyl-1,3,4-oxadiazol-2-yl)cyclohexyl)sulfamoyl)-1H-benzo[d]imidazol-2-yl)benzoate]	971
CC(C)(C)c1nnc([C@H]2CC[C@H](NS(=O)(=O)c3ccc4[nH]c(-c5ccc(Cl)cc5)nc4c3)CC2)o1 [Example 609, N-((1r,4r)-4-(5-tert-butyl-1,3,4-oxadiazol-2-yl)cyclohexyl)-2-(4-chlorophenyl)-1H-benzo[d]imidazole-5-sulfonamide]	1220
CC(C)(C)c1nnc([C@H]2CC[C@H](NS(=O)(=O)c3ccc4[nH]c(-c5cccc(C(=O)O)c5)nc4c3)CC2)o1 [Example 610, 3-(5-(N-((1r,4r)-4-(5-tert-butyl-1,3,4-oxadiazol-2-yl)cyclohexyl)sulfamoyl)-1H-benzo[d]imidazol-2-yl)benzoic acid]	1740
C[C@@H](NC(=O)[C@H]1CC[C@H](NS(=O)(=O)c2ccc3[nH]c(-c4ccccc4)nc3c2)CC1)c1ccc(F)cc1 [Example 611, (1r,4R)-N-((R)-1-(4-fluorophenyl)ethyl)-4-(2-phenyl-1H-benzo[d]imidazole-5-sulfonamido)cyclohexanecarboxamide]	< 10
O=C1NCCCC[C@@H]1NC(=O)[C@H]1CC[C@H](NS(=O)(=O)c2ccc3[nH]c(-c4ccccc4)nc3c2)CC1 [Example 612, (1r,4S)-N-((S)-2-oxoazepan-3-yl)-4-(2-phenyl-1H-benzo[d]imidazole-5-sulfonamido)cyclohexanecarboxamide]	16
Cc1nc2cc(S(=O)(=O)NC3CCC(c4nnc(C(C)C)o4)CC3)ccc2[nH]1 (stereo not shown) [Example 613, N-((1r,4r)-4-(5-isopropyl-1,3,4-oxadiazol-2-yl)cyclohexyl)-2-methyl-1H-benzo[d]imidazole-5-sulfonamide]	39600
Cc1nc2cc(S(=O)(=O)N[C@H]3CC[C@H](C(=O)N[C@H](C)c4ccccc4)CC3)ccc2[nH]1 [Example 614, (1r,4R)-4-(2-methyl-1H-benzo[d]imidazole-5-sulfonamido)-N-((R)-1-phenylethyl)cyclohexanecarboxamide]	142
Cc1nc2cc(S(=O)(=O)N[C@H]3CC[C@H](c4nnc(C(C)(C)C)o4)CC3)ccc2[nH]1 [Example 615, N-((1r,4r)-4-(5-tert-butyl-1,3,4-oxadiazol-2-yl)cyclohexyl)-2-methyl-1H-benzo[d]imidazole-5-sulfonamide]	11500
O=C([C@H]1CC[C@H](NS(=O)(=O)c2ccc3[nH]c(-c4ccccc4)nc3c2)CC1)N1CCc2ccccc2C1 [Example 616, 2-phenyl-N-((1r,4r)-4-(1,2,3,4-tetrahydroisoquinoline-2-carbonyl)cyclohexyl)-1H-benzo[d]imidazole-5-sulfonamide]	370
O=C([C@H]1CC[C@H](NS(=O)(=O)c2ccc3[nH]c(-c4ccccc4)nc3c2)CC1)N1CCN(c2ccccc2)CC1 [Example 617, 2-phenyl-N-((1r,4r)-4-(4-phenylpiperazine-1-carbonyl)cyclohexyl)-1H-benzo[d]imidazole-5-sulfonamide]	996
CN(C(=O)[C@H]1CC[C@H](NS(=O)(=O)c2ccc3[nH]c(-c4ccccc4)nc3c2)CC1)C1CCCCC1 [Example 618, (1r,4r)-N-cyclohexyl-N-methyl-4-(2-phenyl-1H-benzo[d]imidazole-5-sulfonamido)cyclohexanecarboxamide]	80
CN(Cc1ccccc1)C(=O)[C@H]1CC[C@H](NS(=O)(=O)c2ccc3[nH]c(-c4ccccc4)nc3c2)CC1 [Example 619, (1r,4r)-N-benzyl-N-methyl-4-(2-phenyl-1H-benzo[d]imidazole-5-sulfonamido)cyclohexanecarboxamide]	558
CC1CN(C(=O)[C@H]2CC[C@H](NS(=O)(=O)c3ccc4[nH]c(-c5ccccc5)nc4c3)CC2)CC(C)O1 (stereo partly shown) [Example 620, N-((1r,4r)-4-(2,6-dimethylmorpholine-4-carbonyl)cyclohexyl)-2-phenyl-1H-benzo[d]imidazole-5-sulfonamide]	58
O=C(NCCO)[C@H]1CC[C@H](NS(=O)(=O)c2ccc3[nH]c(-c4ccccc4)nc3c2)CC1 [Example 621, (1r,4r)-N-(2-hydroxyethyl)-4-(2-phenyl-1H-benzo[d]imidazole-5-sulfonamido)cyclohexanecarboxamide]	1520
O=C([C@H]1CC[C@H](NS(=O)(=O)c2ccc3[nH]c(-c4ccccc4)nc3c2)CC1)N1Cc2ccccc2C1 [Example 623, N-((1r,4r)-4-(isoindoline-2-carbonyl)cyclohexyl)-2-phenyl-1H-benzo[d]imidazole-5-sulfonamide]	560
O=C([C@H]1CC[C@H](NS(=O)(=O)c2ccc3[nH]c(-c4ccccc4)nc3c2)CC1)N1CCC2CCCCC2C1 (stereo partly shown) [Example 624, N-((1r-4r)-4-(decahydroisoquinoline-2-carbonyl)cyclohexyl)-2-phenyl-1H-benzo[d]imidazole-5-sulfonamide]	246
CCCN(CC1CC1)C(=O)[C@H]1CC[C@H](NS(=O)(=O)c2ccc3[nH]c(-c4ccccc4)nc3c2)CC1 [Example 625, (1r,4r)-N-(cyclopropylmethyl)-4-(2-phenyl-1H-benzo[d]imidole-5-sulfonamido)-N-propylcyclohexanecarboxamide]	80
CC1CC(C)CN(C(=O)[C@H]2CC[C@H](NS(=O)(=O)c3ccc4[nH]c(-c5ccccc5)nc4c3)CC2)C1 (stereo partly shown) [Example 626, N-((1r,4r)-4-(3,5-dimethylpiperidine-1-carbonyl)cyclohexyl)-2-phenyl-1H-benzo[d]imidazole-5-sulfonamide]	78
O=C([C@H]1CC[C@H](NS(=O)(=O)c2ccc3[nH]c(-c4ccccc4)nc3c2)CC1)N1CCN(CC2CCCCC2)CC1 [Example 627, N-((1r,4r)-4-(4-(cyclohexylmethyl)piperazine-1-carbonyl)cyclohexyl)-2-phenyl-1H-benzo[d]imidazole-5-sulfonamide]	2060
O=C(NCCc1ccccc1)[C@H]1CC[C@H](NS(=O)(=O)c2ccc3[nH]c(-c4ccccc4)nc3c2)CC1 [Example 628, (1r,4r)-N-phenethyl-4-(2-phenyl-1H-benzo[d]imidazole-5-sulfonamido)cyclohexanecarboxamide]	408
CC(C)CNC(=O)[C@H]1CC[C@H](NS(=O)(=O)c2ccc3[nH]c(-c4ccccc4)nc3c2)CC1 [Example 629, (1r,4r)-N-isobutyl-4-(2-phenyl-1H-benzo[d]imidazole-5-sulfonamido)cyclohexanecarboxamide]	1760
CC(C)CCNC(=O)[C@H]1CC[C@H](NS(=O)(=O)c2ccc3[nH]c(-c4ccccc4)nc3c2)CC1 [Example 630, (1r,4r)-N-isopentyl-4-(2-phenyl-1H-benzo[d]imidazole-5-sulfonamido)cyclohexanecarboxamide]	781
CN(C)CCNC(=O)[C@H]1CC[C@H](NS(=O)(=O)c2ccc3[nH]c(-c4ccccc4)nc3c2)CC1 [Example 631, (1r,4r)-N-(2-(dimethylamino)ethyl)-4-(2-phenyl-1H-benzo[d]imidazole-5-sulfonamido)cyclohexanecarboxamide]	10300
O=C(NC1CCCCC1)[C@H]1CC[C@H](NS(=O)(=O)c2ccc3[nH]c(-c4ccccc4)nc3c2)CC1 [Example 632, (1r,4r)-N-cyclohexyl-4-(2-phenyl-1H-benzo[d]imidazole-5-sulfonamido)cyclohexanecarboxamide]	145
CCCCNC(=O)[C@H]1CC[C@H](NS(=O)(=O)c2ccc3[nH]c(-c4ccccc4)nc3c2)CC1 [Example 633, (1r,4r)-N-butyl-4-(2-phenyl-1H-benzo[d]imidazole-5-sulfonamido)cyclohexanecarboxamide]	1170
COCCNC(=O)[C@H]1CC[C@H](NS(=O)(=O)c2ccc3[nH]c(-c4ccccc4)nc3c2)CC1 [Example 634, (1r,4r)-N-(2-methoxyethyl)-4-(2-phenyl-1H-benzo[d]imidazole-5-sulfonamido)cyclohexanecarboxamide]	1680
O=C(NC1CC1)[C@H]1CC[C@H](NS(=O)(=O)c2ccc3[nH]c(-c4ccccc4)nc3c2)CC1 [Example 635, (1r,4r)-N-cyclopropyl-4-(2-phenyl-1H-benzo[d]imidazole-5-sulfonamido)cyclohexanecarboxamide]	256
